Laboratory results from publication PMC3827244, “An Ultrasensitive High Throughput Screen for DNA Methyltransferase 1-Targeted Molecular Probes” (PLoS ONE, 2013).
Where two headings read alike, the source gives them in different places.

How the values were obtained:
[1] = target: T1, DNMT1 (amino acids 621–1616) (Homo sapiens, UniProt P26358); test: Differential scanning fluorimetry (DSF) assay; assay type: binding; conditions: 100 µM compound; for Tm: 2 µM DNMT1, no DNA or SAM, DMSO 46.5 ± 0.1; for ∆Tm: shift versus DMSO control
T1 construct: RFTS-lacking DNMT1, amino acids 621–1616; made in house
Description: DSF [32] was used to assess the ability of the validated inhibitors to bind directly to DNMT1 in the absence of DNA and SAM and alter the observed melting temperature (Tm). Assays (25 µl) were conducted in triplicate in a Bio-Rad C1000 Thermal Cycler – CFX Real-Time System using the FRET channel and contained 50 mM HEPES pH 7.5, 150 mM NaCl, 2 µM DNMT1 (amino acids 621–1616), 5X Sypro Orange (Invitrogen Molecular Probes), 100 µM compound, and 1% DMSO. A DMSO control assay in the absence of compounds was also examined. Temperature was increased from 25 to 95°C by 0.5°C per minute. Fluorescence traces were exported and analyzed by fitting to the Boltzmann equation in Prism to determine the Tm.

[2] = target: T1, DNMT1 (amino acids 621–1616); test: Detergent test, endonuclease-coupled DNA methylation assay; assay type: biochemical; conditions: 5 µM compound
Text: The effect of detergent on observed DNMT1 inhibition was examined using the endonuclease-coupled DNA methylation assay. […] A control containing GlaI in the absence of DNMT1 was subtracted from each assay condition. Corrected assay traces were fitted in Prism.

M.SssI DNMT = target: T2, M.SssI DNMT (Spiroplasma monobiae, UniProt P15840); test: Compound selectivity, endonuclease-coupled DNA methylation assay; assay type: biochemical, bacterial; conditions: 1.25 h; 20 µM inhibitor, 20 nM methyltransferase, 0.25 mM SAM; read-out: Percent activity, M.SssI DNMT
T2 construct: purchased New England Biolabs
Description: After identifying direct inhibitors of DNMT1 lacking the RFTS domain, inhibitor selectivity was assessed by examining inhibition of RFTS-containing DNMT1 (amino acids 351–1616), CD-DNMT3A/DNMT3L complex, and the bacterial cytosine methyltransferase from M. SssI (New England Biolabs) using the endonuclease-coupled DNA methylation assay. Triplicate assays (100 µl) containing 0.25 mM SAM, 0.2 µM oligonucleotide 8006, 0.8 U GlaI, 20 nM methyltransferase, 20 µM inhibitor and 1% DMSO were conducted in 96 well plates. Following enzyme addition, assay plates were incubated at 37°C for 75 min and fluorescence was measured in a BioTek Neo plate reader. A control containing only GlaI was subtracted from each assay. […] Percent activity was determined by comparing product formation to a DMSO containing control assay.

GlaI = GlaI counterscreen; assay type: biochemical; conditions: 11 µM test compound; for Initial Velocity: 5 nM oligonucleotide 8007, 0.2 U GlaI; for Percent Activity: compared to DMSO
Description: GlaI inhibitors were identified and excluded using a fluorescence-based assay. Duplicate assays (80 µl) were conducted in 96 well plates. Assays contained 10 mM Tris-HCl pH 7.5, 100 mM potassium glutamate, 1 mM MgCl2, 1 mM DTT, 0.1 mg/mL BSA, 5% glycerol, 5 nM oligonucleotide 8007 (5′-FAM-CCTATGmCGm[…]mCGmCATAGG-3′-Iowa Black, where mC denotes 5-methyldeoxycytidylate residues, Integrated DNA Technologies, Coralville, IA), 0.2 U GlaI, 11 µM test compound and 1.2% DMSO. Reactions were initiated by the addition of GlaI. Cleavage of the oligonucleotide releases the 5′ FAM fluorophore from the 3′ Iowa Black quencher and generates fluorescence. A control reaction in the absence of GlaI was subtracted from each assay condition to account for background fluorescence of the internally quenched substrate. Corrected time courses were fitted in Prism.

CD-DNMT3A/DNMT3L complex = target: T3, CD-DNMT3A/DNMT3L complex (Homo sapiens, UniProt Q9Y6K1); test: Compound selectivity, endonuclease-coupled DNA methylation assay; assay type: biochemical; conditions: 20 µM inhibitor; for Percent activity, DNMT3A/DNMT3L Complex: 20 nM methyltransferase, 0.25 mM SAM
T3 construct: CD-DNMT3A; amino acids 611–912; His tag (N); made in house; host or cells: Rosetta 2(DE3)pLysS (E. coli) for CD-DNMT3A
Description: (§1) Triplicate assays (100 µl) containing 0.25 mM SAM, 0.2 µM oligonucleotide 8006, 0.8 U GlaI, 20 nM methyltransferase, 20 µM inhibitor and 1% DMSO were conducted in 96 well plates. Following enzyme addition, assay plates were incubated at 37°C for 75 min and fluorescence was measured in a BioTek Neo plate reader. A control containing only GlaI was subtracted from each assay. […] Percent activity was determined by comparing product formation to a DMSO containing control assay.

[3] = target: T4, RFTS-containing DNMT1 (amino acids 351–1616) (Homo sapiens, UniProt P26358); test: as above; assay type: biochemical; conditions: 20 µM inhibitor, 20 nM methyltransferase, 0.25 mM SAM
T4 construct: RFTS-containing DNMT1, amino acids 351–1616; made in house
Description: as §1

[4] = absence of 0.01% Triton X-100, read-out: Percent activity, 0.01% Triton X-100 -
[5] = presence of 0.01% Triton X-100, read-out: Percent activity, 0.01% Triton X-100 +

T1 sequence (P26358 621-1616): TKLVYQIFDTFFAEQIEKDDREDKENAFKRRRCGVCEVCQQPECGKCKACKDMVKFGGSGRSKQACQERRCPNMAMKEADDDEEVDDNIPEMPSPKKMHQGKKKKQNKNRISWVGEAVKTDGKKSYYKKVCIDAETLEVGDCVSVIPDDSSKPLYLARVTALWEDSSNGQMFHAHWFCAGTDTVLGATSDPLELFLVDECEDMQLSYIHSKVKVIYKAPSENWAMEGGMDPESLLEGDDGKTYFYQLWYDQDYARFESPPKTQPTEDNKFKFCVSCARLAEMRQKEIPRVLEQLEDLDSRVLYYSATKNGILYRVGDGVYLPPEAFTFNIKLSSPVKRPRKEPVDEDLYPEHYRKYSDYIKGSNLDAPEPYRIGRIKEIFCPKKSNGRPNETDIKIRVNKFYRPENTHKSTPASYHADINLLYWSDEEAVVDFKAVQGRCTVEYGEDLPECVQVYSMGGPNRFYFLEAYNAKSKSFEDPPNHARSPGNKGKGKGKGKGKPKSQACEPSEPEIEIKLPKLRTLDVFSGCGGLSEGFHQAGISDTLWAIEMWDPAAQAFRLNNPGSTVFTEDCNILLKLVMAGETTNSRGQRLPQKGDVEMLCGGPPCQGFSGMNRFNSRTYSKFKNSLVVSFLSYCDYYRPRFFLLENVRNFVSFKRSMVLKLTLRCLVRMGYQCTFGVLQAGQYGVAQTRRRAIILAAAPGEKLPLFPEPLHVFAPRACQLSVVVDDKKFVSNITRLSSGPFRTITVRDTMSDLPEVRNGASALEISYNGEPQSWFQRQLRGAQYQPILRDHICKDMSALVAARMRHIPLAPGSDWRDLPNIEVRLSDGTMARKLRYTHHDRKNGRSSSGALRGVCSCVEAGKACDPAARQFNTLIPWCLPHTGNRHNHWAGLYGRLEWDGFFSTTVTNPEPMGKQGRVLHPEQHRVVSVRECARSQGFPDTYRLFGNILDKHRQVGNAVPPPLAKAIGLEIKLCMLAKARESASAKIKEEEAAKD
T2 sequence (P15840 whole entry): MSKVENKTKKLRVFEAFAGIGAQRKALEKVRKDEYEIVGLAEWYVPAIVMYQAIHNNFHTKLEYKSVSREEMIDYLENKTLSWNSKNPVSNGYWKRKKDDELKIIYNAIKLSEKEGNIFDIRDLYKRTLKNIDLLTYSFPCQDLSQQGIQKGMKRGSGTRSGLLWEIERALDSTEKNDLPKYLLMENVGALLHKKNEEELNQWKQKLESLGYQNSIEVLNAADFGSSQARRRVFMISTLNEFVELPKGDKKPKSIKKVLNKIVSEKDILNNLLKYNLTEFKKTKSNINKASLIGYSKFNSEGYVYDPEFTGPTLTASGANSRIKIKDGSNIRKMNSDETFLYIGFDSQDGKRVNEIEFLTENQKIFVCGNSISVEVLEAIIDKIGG
T4 sequence (P26358 351-1616): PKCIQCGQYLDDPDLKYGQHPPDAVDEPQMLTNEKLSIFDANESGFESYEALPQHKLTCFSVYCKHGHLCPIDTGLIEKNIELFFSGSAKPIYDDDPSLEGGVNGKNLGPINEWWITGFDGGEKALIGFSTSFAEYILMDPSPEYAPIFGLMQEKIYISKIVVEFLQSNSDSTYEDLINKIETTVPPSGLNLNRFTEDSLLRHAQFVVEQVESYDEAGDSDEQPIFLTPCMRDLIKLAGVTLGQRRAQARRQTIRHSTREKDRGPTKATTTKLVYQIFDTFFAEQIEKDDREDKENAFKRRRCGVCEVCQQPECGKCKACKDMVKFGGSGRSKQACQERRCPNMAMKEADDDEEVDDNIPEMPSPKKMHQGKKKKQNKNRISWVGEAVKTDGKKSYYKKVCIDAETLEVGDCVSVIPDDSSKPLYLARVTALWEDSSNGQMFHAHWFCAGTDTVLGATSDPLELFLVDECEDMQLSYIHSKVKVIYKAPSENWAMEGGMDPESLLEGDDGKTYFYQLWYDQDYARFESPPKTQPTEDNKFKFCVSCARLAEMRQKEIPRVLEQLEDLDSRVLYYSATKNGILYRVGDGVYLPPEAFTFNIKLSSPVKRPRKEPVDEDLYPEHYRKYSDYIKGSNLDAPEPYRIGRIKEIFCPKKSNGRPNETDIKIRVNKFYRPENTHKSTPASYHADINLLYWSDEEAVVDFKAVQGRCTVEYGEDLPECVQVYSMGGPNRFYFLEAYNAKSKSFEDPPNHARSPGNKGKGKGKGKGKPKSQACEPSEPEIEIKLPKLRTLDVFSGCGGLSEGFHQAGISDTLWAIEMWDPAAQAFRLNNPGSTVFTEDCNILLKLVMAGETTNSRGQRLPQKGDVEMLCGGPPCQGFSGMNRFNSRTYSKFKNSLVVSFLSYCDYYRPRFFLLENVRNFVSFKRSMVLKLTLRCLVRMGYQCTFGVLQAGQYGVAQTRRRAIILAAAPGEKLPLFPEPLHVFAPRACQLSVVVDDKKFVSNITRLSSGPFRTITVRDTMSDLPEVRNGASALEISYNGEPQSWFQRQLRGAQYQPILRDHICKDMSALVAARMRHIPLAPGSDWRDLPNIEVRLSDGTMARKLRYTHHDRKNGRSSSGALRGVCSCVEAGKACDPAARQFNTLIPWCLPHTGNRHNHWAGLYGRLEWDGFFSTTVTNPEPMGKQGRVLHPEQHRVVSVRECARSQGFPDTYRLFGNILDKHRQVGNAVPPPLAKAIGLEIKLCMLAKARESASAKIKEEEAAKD
T3 sequence (Q9Y6K1 611-912): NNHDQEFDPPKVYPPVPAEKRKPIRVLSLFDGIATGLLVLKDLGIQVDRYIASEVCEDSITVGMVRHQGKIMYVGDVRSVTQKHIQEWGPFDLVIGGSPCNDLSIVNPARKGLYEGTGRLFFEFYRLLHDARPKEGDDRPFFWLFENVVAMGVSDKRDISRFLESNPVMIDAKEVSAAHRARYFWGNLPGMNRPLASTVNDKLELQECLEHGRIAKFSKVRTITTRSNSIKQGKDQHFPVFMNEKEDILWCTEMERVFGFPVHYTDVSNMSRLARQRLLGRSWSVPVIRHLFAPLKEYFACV
T3 sequence (Q9UJW3 whole entry partner, the tested form may be a part): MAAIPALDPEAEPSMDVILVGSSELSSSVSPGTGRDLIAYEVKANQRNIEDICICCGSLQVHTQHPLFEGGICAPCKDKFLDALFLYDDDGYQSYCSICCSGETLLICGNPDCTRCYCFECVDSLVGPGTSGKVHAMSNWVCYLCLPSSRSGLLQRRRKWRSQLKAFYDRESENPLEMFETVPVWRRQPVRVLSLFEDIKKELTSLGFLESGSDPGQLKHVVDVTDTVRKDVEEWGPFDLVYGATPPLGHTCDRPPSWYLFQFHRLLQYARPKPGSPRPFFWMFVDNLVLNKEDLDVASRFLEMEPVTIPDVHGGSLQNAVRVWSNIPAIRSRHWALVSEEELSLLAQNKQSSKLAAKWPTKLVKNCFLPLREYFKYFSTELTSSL

Oc1cc(Cl)ccc1Oc1ccc(Cl)cc1Cl [Cmpd 13, triclosan]
Tm [1]: 47.5 ± 0.1 ºC
∆Tm [1]: +1.0 ºC
remaining activity at 5 µM [2, 4]: 52%
remaining activity at 5 µM [2, 5]: 48%
remaining activity at 20 µM (M.SssI DNMT): 25 ± 4%
Initial Velocity (GlaI): 28 ± 2 RFU/min
selectivity for DNMT1 versus DNMT3A/DNMT3L (in words) (CD-DNMT3A/DNMT3L complex): nonselective
Percent activity, DNMT3A/DNMT3L Complex (CD-DNMT3A/DNMT3L complex): 23±10%
Percent activity, RFTS-containing Dnmt1 [3]: 25±8%

O=C(O)c1cc(O)c2c(c1)[C@@H]([C@H]1c3cc(C(=O)O)cc(O)c3C(=O)c3c(O[C@H]4O[C@H](CO)[C@@H](O)[C@H](O)[C@H]4O)cccc31)c1cccc(O[C@H]3O[C@H](CO)[C@@H](O)[C@H](O)[C@H]3O)c1C2=O [Cmpd 22]
Tm [1]: 47.5 ± 0.1 ºC
∆Tm [1]: +1.0 ºC
remaining activity at 5 µM [2, 4]: 7%
remaining activity at 5 µM [2, 5]: 9%
remaining activity at 20 µM (M.SssI DNMT): 20 ± 5%
Initial Velocity (GlaI): 24 ± 1 RFU/min
Percent Activity (GlaI): 86%
Percent activity, DNMT3A/DNMT3L Complex (CD-DNMT3A/DNMT3L complex): 88±11%
Percent activity, RFTS-containing Dnmt1 [3]: 40±10%

CC1/C=C/C=C/C=C/C=C/C=C/C=C/C=C/C(O[C@@H]2O[C@H](C)[C@H](O)[C@@H](O)[C@@H]2N)CC(O)C(C(=O)O)C(O)CC(=O)CC(O)CC(O)CC(O)CC(=O)CCCC(=O)CC(=O)OC1C(C)CC(C)C(O)CC(=O)c1ccc(N)cc1 (stereo partly shown) [Cmpd 24]
Tm [1]: 47.5 ± 0.1 ºC
∆Tm [1]: +1.0 ºC
remaining activity at 5 µM [2, 4]: 0%
remaining activity at 5 µM [2, 5]: 0%
remaining activity at 20 µM (M.SssI DNMT): 49 ± 12%
Initial Velocity (GlaI): 27 ± 1 RFU/min
Percent activity, DNMT3A/DNMT3L Complex (CD-DNMT3A/DNMT3L complex): 49±16%

O=C1c2ccccc2C(=O)c2c1ccc(O)c2O [Cmpd 26, alizarin]
Tm [1]: 48.5 ± 0.1 ºC
∆Tm [1]: +2.0 ºC
remaining activity at 5 µM [2, 4]: 67%
remaining activity at 5 µM [2, 5]: 63%
remaining activity at 20 µM (M.SssI DNMT): 68 ± 11%
Initial Velocity (GlaI): 22 ± 1 RFU/min
Percent Activity (GlaI): 79%
selectivity for DNMT1 versus DNMT3A/DNMT3L (in words) (CD-DNMT3A/DNMT3L complex): nonselective
Percent activity, DNMT3A/DNMT3L Complex (CD-DNMT3A/DNMT3L complex): 49±12%
Percent activity, RFTS-containing Dnmt1 [3]: 51±10%

CSc1nc2cc(Cl)c(Oc3cccc(Cl)c3Cl)cc2[nH]1 [Cmpd 29, triclabendazole]
Tm [1]: 48.3 ± 0.1 ºC
∆Tm [1]: +1.8 ºC
remaining activity at 5 µM [2, 4]: 52%
remaining activity at 5 µM [2, 5]: 46%
remaining activity at 20 µM (M.SssI DNMT): 19 ± 6%
Initial Velocity (GlaI): 22 ± 2 RFU/min
Percent Activity (GlaI): 79%
selectivity for DNMT1 versus DNMT3A/DNMT3L (in words) (CD-DNMT3A/DNMT3L complex): exhibited selectivity
Percent activity, DNMT3A/DNMT3L Complex (CD-DNMT3A/DNMT3L complex): 110±5%

O=c1c(O)c(-c2ccc(O)c(O)c2)oc2c(O)c(O)cc(O)c12 [Cmpd 33]
Tm [1]: 64.4 ± 0.2 ºC
∆Tm [1]: +17.9 ºC
remaining activity at 5 µM [2, 4]: 53%
remaining activity at 5 µM [2, 5]: 47%
remaining activity at 20 µM (M.SssI DNMT): 86 ± 9%
Initial Velocity (GlaI): 27 ± 2 RFU/min
Percent activity, DNMT3A/DNMT3L Complex (CD-DNMT3A/DNMT3L complex): 74±13%
Percent activity, RFTS-containing Dnmt1 [3]: 38±13%

O=C(O)c1cc(O)c2c(c1)[C@@H]([C@@H]1c3cc(C(=O)O)cc(O)c3C(=O)c3c(O[C@H]4O[C@H](CO)[C@@H](O)[C@H](O)[C@H]4O)cccc31)c1cccc(O[C@H]3O[C@H](CO)[C@@H](O)[C@H](O)[C@H]3O)c1C2=O [Cmpd 36]
Tm [1]: 47.4 ± 0.1 ºC
∆Tm [1]: +0.9 ºC
remaining activity at 5 µM [2, 4]: 0%
remaining activity at 5 µM [2, 5]: 0%
remaining activity at 20 µM (M.SssI DNMT): 40 ± 7%
Initial Velocity (GlaI): 28 ± 1 RFU/min
Percent activity, DNMT3A/DNMT3L Complex (CD-DNMT3A/DNMT3L complex): 83±15%
Percent activity, RFTS-containing Dnmt1 [3]: 30±12%

CC(=O)NCCc1ccc(O)c(-c2c(O)c(O)c3c(c2O)C(=O)c2c(cc(O)c(C(=O)O)c2C(=O)O)C3=O)c1 [Cmpd 40, Laccaic acid A]
Tm [1]: 48.5 ± 0.1 ºC
∆Tm [1]: +2.0 ºC
remaining activity at 5 µM [2, 4]: 56%
remaining activity at 5 µM [2, 5]: 58%
remaining activity at 20 µM (M.SssI DNMT): 82 ± 10%
Initial Velocity (GlaI): 22 ± 3 RFU/min
Percent Activity (GlaI): 79%
selectivity for DNMT1 over DNMT3A/DNMT3L (CD-DNMT3A/DNMT3L complex): ~4 fold
Percent activity, DNMT3A/DNMT3L Complex (CD-DNMT3A/DNMT3L complex): 80±10%
Percent activity, RFTS-containing Dnmt1 [3]: 21±9%

O=C(O)C(S)C(S)C(=O)O (stereo not shown) [Cmpd 51]
Tm [1]: 49.0 ± 0.1 ºC
∆Tm [1]: +2.5 ºC
remaining activity at 5 µM [2, 4]: 10%
remaining activity at 5 µM [2, 5]: 8%
remaining activity at 20 µM (M.SssI DNMT): 36 ± 7%
Initial Velocity (GlaI): 25 ± 1 RFU/min
Percent Activity (GlaI): 89%
Percent activity, DNMT3A/DNMT3L Complex (CD-DNMT3A/DNMT3L complex): 61±12%
Percent activity, RFTS-containing Dnmt1 [3]: 24±11%
